Experimental data reported in patent US12263175B2, “Optimised dosage of diaminophenothiazines in populations” (WisTa Laboratories Ltd., priority 2018, dated 2025).

Legend:
[1] = Population PK model estimate of steady-state parent MT Cmax in AD patients (Studies 005 and 015); type: in vivo, human; details: for Cmax: human, plasma, oral
Text: This, the PK model was then further developed and simplified to a two compartment model fit to the parent MT concentrations only. This model has a fixed Vc, but the dose-dependent Ka is removed.
This model was derived from Study 036 discussed above. The disposition of parent MT post PO administration of LMTM was adequately described by a two-compartment model with and a delayed absorption occurring through two transit compartments. Apparent oral clearance (CL/F) of parent MT was related to renal function such that a small portion of the variability in parent CL is described by normalized creatinine clearance (CLCRN).
The population PK model was then used to estimate Cmax of parent MT in the patients who received 4 mg or high dose (c. 200 mg/day) in these Phase 3 AD studies. This Bayesian process involved fixing the population mean and inter-individual variability parameters to the estimates from the fit of the population PK model to the steady-state data from Study 036 and allowing the program to select a set of parameters, given those Bayesian priors, which best predicts the parent MT concentrations from Day 1 in each individual.
That threshold was <0.373 ng/mL.
Higher doses were grouped according to dose (N=187-329 per group).
Since only 65% of patients receiving the 8 mg/day have plasma concentrations above the threshold required for significant treatment benefit, it is desirable to determine the minimum dose at which 100% patients would be expected to have plasma levels within the therapeutic range.

[2] = Population PK model estimate of steady-state parent MT Cmax in bvFTD trial patients; type: in vivo; details: human, plasma, oral, 8 mg/day, read-out: Cmax,ss cut-off, upper limit of the lowest 35% group
Method: The population PK model described above was used to estimate Cmax of parent MT in the patients in the bvFTD study. As with the AD trials described above, the median value at each dose was taken as a threshold for dividing patients into “High Cmax” and “Low Cmax” groups.
The cut-off that defined the upper limit of the lowest 35% group (corresponding to the percentage of patients with plasma levels below the validated limit of quantitation in Day 1) was 0.346 ng/ml for the bvFTD population.
As for AD (see Example 10) the remainder with Day 1 plasma levels within the validated range of quantitation at the 8 mg/day dose were distributed in 3 groups having approximately equal numbers (22% each; see Table EX7 below).

[3] = test system: tau transgenic mouse model; assay: Tau transgenic mouse model, spatial learning memory after pre-treatment with symptomatic drugs; type: in vivo
Text: As is evident from the foregoing, there is a reduction in the maximum effect of LMTM when it is combined with symptomatic treatments. It should be noted however, that this relates to a context in which patients have received LMTM against a background of chronic pre-treatment with symptomatic drugs. The mechanism of this has been elucidated in a series of experiments in a well characterised tau transgenic mouse model.

For `CN(C)c1ccc2c(c1)Sc1cc(N(C)C)ccc1N2` [LMTM, leuco-methylthioninium bis(hydromethanesulfonate)], the “Proportion of subjects above Cmax threshold” value ([1]; 4 mg bid) was 50%, the “Critical therapeutic threshold for Cave,ss” value ([1]; AD patients) was 0.223 ng/mL and the “Critical therapeutic threshold for Cmax,ss” value ([1]; AD patients) was 0.393 ng/mL. For the same compound, the “Patients with plasma concentrations above the threshold required for significant treatment benefit” value ([1]; AD patients receiving 8 mg/day) was 65%, the “Plasma-modelled parent MT Cmax,ss Mean (SD)” value ([1]; AD, studies TRx-237-015 and TRx-237-005, 8 mg/day - Group 2) was 0.393 (0.0125) ng/mL and the “Dose for 100% of patients to have plasma levels in the therapeutic range” value ([1]; AD, QD or BID, either Cmax,ss or Cave,ss criterion) was “at least 16 mg/day”. For the same compound, the “Proportion of subjects achieving Cmax above the median-derived threshold value” ([1]; dosing above 20 mg MT (e.g. as LMTM), depends on number of split doses) was 90 to 100%, the Cmax ([1]; 8 mg/day, AD patients receiving LMTM 8 mg/day, read-out: Cmax,ss threshold, upper limit of the lowest 35% of patients) was < 0.373 ng/mL and the Cmax ([1]; 8 mg/day, AD, studies TRx-237-015 and TRx-237-005, 8 mg/day - Group 1, read-out: Plasma-modelled parent MT Cmax,ss Range) was 0.257 to 0.373 ng/mL. The Cmax ([1]; 8 mg/day, AD, studies TRx-237-015 and TRx-237-005, 8 mg/day - Group 2, read-out: Plasma-modelled parent MT Cmax,ss Range) was 0.373 to 0.414 ng/mL, the Cmax ([1]; 8 mg/day, AD, studies TRx-237-015 and TRx-237-005, 8 mg/day - Group 3, read-out: Plasma-modelled parent MT Cmax,ss Range) was 0.415 to 0.478 ng/mL and the Cmax ([1]; 8 mg/day, AD, studies TRx-237-015 and TRx-237-005, 8 mg/day - Group 4, read-out: Plasma-modelled parent MT Cmax,ss Range) was 0.479 to 0.812 ng/mL. For the same compound, the Cmax ([1]; 150 mg/day, AD, studies TRx-237-015 and TRx-237-005, 150 mg/day, read-out: Plasma-modelled parent MT Cmax,ss Range) was 5.1 to 18.6 ng/mL, the Cmax ([1]; 200 mg/day, AD, studies TRx-237-015 and TRx-237-005, 200 mg/day, read-out: Plasma-modelled parent MT Cmax,ss Range) was 6.56 to 21.3 ng/mL and the Cmax ([1]; 250 mg/day, AD, studies TRx-237-015 and TRx-237-005, 250 mg/day, read-out: Plasma-modelled parent MT Cmax,ss Range) was 8.83 to 21.2 ng/mL. For the same compound, the “Estimated proportion of subjects above Cmax threshold” value ([1]; ˜20 mg/day (10 mg bid)) was ~100%, the Cmax [2] was 0.346 ng/mL and the “Effect on spatial learning memory” value ([3]; chronic pre-treatment with rivastigmine) was “elimination of the beneficial effect”. For the same compound, the “Effect on spatial learning memory” value ([3]; pre-treatment with memantine) was “eliminated the effect”.
